Experiments:
[1] = target: T1, PIKFYVE (Homo sapiens, UniProt Q9Y2I7); experiment: PIKFYVE assay (luciferase ADP-Glo kinase assay, Promega); type: biochemical; settings: Table 3
Method in brief: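 Kinase activity measured with a luciferase-based ADP-Glo read-out, which quantifies ADP formed by the enzyme.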

[2] = target: T1, PIKFYVE; experiment: Cell-based Pikfyve inhibition activity assay (EEA1 staining, mean vesicle size in BJ fibroblast cells); settings: Table 4, 4 hours treatment, 3 μM Apilimod = 100% inhibition
Method in brief: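 BJ fibroblasts treated 4 h at 37° C with eleven 3-fold doses (0.03-3000 nM), then fixed and stained for EEA1. Confocal images (20×, 16 tiles/well) analysed for mean vesicle size. Normalised to 0.5% DMSO (0%) and 3 μM apilimod (100%); dose-response fitted with variable slope.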

T1 sequence (Q9Y2I7 whole entry): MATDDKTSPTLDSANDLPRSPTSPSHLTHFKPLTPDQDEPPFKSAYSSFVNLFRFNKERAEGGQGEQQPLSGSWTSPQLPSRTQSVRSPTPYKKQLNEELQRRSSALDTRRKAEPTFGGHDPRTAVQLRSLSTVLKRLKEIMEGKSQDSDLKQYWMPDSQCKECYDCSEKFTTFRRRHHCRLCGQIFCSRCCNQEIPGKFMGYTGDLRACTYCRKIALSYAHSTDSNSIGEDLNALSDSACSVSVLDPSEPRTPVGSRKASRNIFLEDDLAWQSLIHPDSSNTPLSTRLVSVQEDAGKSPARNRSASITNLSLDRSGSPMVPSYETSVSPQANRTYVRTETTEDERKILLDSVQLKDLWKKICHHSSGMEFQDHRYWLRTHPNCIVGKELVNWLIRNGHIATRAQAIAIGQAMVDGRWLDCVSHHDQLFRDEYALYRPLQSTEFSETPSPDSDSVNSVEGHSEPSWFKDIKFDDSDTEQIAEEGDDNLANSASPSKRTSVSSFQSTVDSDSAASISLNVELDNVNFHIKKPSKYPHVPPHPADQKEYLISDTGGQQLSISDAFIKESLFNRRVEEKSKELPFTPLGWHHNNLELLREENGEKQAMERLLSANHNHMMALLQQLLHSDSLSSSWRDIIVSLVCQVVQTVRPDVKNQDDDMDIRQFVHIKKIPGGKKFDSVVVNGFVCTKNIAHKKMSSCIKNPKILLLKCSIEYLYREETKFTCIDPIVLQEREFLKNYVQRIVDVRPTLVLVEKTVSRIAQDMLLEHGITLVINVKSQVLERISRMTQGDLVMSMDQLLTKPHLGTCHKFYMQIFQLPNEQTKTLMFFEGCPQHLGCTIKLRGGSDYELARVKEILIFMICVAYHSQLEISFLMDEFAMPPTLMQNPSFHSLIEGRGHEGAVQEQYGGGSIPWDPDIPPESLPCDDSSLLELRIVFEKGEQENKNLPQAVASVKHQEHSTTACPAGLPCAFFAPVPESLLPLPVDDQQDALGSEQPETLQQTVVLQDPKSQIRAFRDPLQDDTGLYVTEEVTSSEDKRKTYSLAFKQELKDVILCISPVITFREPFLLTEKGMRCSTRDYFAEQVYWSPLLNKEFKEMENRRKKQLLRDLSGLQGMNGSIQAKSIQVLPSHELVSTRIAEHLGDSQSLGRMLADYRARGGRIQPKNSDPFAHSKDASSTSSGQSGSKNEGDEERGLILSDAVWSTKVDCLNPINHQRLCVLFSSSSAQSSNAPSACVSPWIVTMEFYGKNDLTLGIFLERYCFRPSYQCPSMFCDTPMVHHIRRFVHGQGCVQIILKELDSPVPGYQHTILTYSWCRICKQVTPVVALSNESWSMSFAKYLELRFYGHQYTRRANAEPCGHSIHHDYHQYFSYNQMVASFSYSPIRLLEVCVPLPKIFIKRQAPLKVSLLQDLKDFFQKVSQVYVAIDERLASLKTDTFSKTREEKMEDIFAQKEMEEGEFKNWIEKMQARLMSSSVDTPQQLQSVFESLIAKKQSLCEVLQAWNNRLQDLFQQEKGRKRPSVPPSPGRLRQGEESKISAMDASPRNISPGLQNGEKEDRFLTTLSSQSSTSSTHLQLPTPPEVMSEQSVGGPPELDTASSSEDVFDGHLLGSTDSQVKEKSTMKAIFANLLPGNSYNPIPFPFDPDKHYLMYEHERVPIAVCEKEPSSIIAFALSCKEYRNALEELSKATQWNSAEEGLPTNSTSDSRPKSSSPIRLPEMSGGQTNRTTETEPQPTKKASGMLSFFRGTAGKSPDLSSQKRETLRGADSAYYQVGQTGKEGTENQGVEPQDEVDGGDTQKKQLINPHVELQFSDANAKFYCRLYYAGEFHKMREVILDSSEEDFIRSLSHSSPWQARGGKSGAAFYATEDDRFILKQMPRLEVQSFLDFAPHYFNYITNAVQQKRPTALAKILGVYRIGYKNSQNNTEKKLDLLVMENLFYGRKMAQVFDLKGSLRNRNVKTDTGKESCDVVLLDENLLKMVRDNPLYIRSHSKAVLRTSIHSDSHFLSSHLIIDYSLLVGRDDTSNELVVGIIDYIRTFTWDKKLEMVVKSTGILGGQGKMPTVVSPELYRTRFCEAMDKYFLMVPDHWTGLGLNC

Structure (SMILES)	IC50 [1]	EC50 [2]
Cc1cccc(-c2ccn(-c3cc(N4CCOCC4)nc(NCCO)n3)n2)c1 [Compound 208, 2-((4-morpholino-6-(3-(m-tolyl)-1H-pyrazol-1-yl)pyrimidin-2-yl)amino)ethan-1-ol]	3 to 10 nM	20 to 100 nM
Cc1cccc(-c2ccn(-c3cc(N4CCOCC4)nc(OCCN)n3)n2)c1 [Compound 209, 2-((4-morpholino-6-(3-(m-tolyl)-1H-pyrazol-1-yl)pyrimidin-2-yl)oxy)ethan-1-amine]	10 to 100 nM	100 to 500 nM
Cn1cc(CCOc2nc(N3CCOCC3)cc(-n3nc(O)cc3-c3ccccc3)n2)cn1 [Compound 211, 1-(2-(2-(1-methyl-1H-pyrazol-4-yl)ethoxy)-6-morpholinopyrimidin-4-yl)-5-phenyl-1H-pyrazol-3-ol]	< 3 nM	100 to 500 nM
Cn1cc(CCOc2nc(Oc3cc(-c4ccccc4)nn3C)cc(N3CCOCC3)n2)cn1 [Compound 212, 4-(2-(2-(1-methyl-1H-pyrazol-4-yl)ethoxy)-6-((1-methyl-3-phenyl-1H-pyrazol-5-yl)oxy)pyrimidin-4-yl)morpholine]	3 to 10 nM	500 to 5000 nM
Cc1cccc(-c2ccn(-c3cc(N4CCOCC4)nc(OCCc4cn[nH]c4)n3)n2)c1 [Compound 214, 4-(2-(2-(1H-pyrazol-4-yl)ethoxy)-6-(3-(m-tolyl)-1H-pyrazol-1-yl)pyrimidin-4-yl)morpholine]	< 3 nM	< 20 nM
Cn1cc(CCOc2nc(Oc3cc(-c4ccccc4)[nH]n3)cc(N3CCOCC3)n2)cn1 [Compound 215, 4-(2-(2-(1-methyl-1H-pyrazol-4-yl)ethoxy)-6-((5-phenyl-1H-pyrazol-3-yl)oxy)pyrimidin-4-yl)morpholine]	10 to 100 nM	500 to 5000 nM
Cn1cc(CCOc2nc(N3CCOCC3)cc(-n3nc(-c4ccccc4)cc3C3CC3)n2)cn1 [Compound 216, 4-(6-(5-cyclopropyl-3-phenyl-1H-pyrazol-1-yl)-2-(2-(1-methyl-1H-pyrazol-4-yl)ethoxy)pyrimidin-4-yl)morpholine]	< 3 nM	20 to 100 nM
COCc1cc(-c2ccccc2)nn1-c1cc(N2CCOCC2)nc(OCCc2cnn(C)c2)n1 [Compound 217, 4-(6-(5-(methoxymethyl)-3-phenyl-1H-pyrazol-1-yl)-2-(2-(1-methyl-1H-pyrazol-4-yl)ethoxy)pyrimidin-4-yl)morpholine]	< 3 nM	20 to 100 nM
CCc1cc(-c2ccccc2)nn1-c1cc(N2CCOCC2)nc(OCCc2cnn(C)c2)n1 [Compound 218, 4-(6-(5-ethyl-3-phenyl-1H-pyrazol-1-yl)-2-(2-(1-methyl-1H-pyrazol-4-yl)ethoxy)pyrimidin-4-yl)morpholine]	< 3 nM	20 to 100 nM
Cc1cccc(-c2cc(C)n(-c3cc(N4CCOCC4)nc(OCCc4cnn(C)c4)n3)n2)c1 [Compound 219, 4-(2-(2-(1-methyl-1H-pyrazol-4-yl)ethoxy)-6-(5-methyl-3-(m-tolyl)-1H-pyrazol-1-yl)pyrimidin-4-yl)morpholine]	< 3 nM	20 to 100 nM
CN(C)CCc1cc(-c2ccccc2)nn1-c1cc(N2CCOCC2)nc(OCCc2cnn(C)c2)n1 [Compound 220, N,N-dimethyl-2-(1-(2-(2-(1-methyl-1H-pyrazol-4-yl)ethoxy)-6-morpholinopyrimidin-4-yl)-3-phenyl-1H-pyrazol-5-yl)ethan-1-amine]	< 3 nM	< 20 nM
CNCCc1cc(-c2ccccc2)nn1-c1cc(N2CCOCC2)nc(OCCc2cnn(C)c2)n1 [Compound 221, N-methyl-2-(1-(2-(2-(1-methyl-1H-pyrazol-4-yl)ethoxy)-6-morpholinopyrimidin-4-yl)-3-phenyl-1H-pyrazol-5-yl)ethan-1-amine]	< 3 nM	20 to 100 nM
Cc1cccc(-c2ccn(-c3cc(N4CCOCC4)nc(CCc4cnn(C)c4)n3)n2)c1 [Compound 223, 4-(2-(2-(1-methyl-1H-pyrazol-4-yl)ethyl)-6-(3-(m-tolyl)-1H-pyrazol-1-yl)pyrimidin-4-yl)morpholine]	< 3 nM	100 to 500 nM
CO[C@H](CO)c1nc(N2CCOCC2)cc(-n2nc(-c3cccc(C)c3)cc2C)n1 [Compound 225, (S)-2-methoxy-2-(4-(5-methyl-3-(m-tolyl)-1H-pyrazol-1-yl)-6-morpholinopyrimidin-2-yl)ethan-1-ol]	3 to 10 nM	100 to 500 nM
COC(C)(CO)c1nc(N2CCOCC2)cc(-n2ccc(-c3cccc(C)c3)n2)n1 (centres unmarked) [Compound 226, 2-methoxy-2-(4-morpholino-6-(3-(m-tolyl)-1H-pyrazol-1-yl)pyrimidin-2-yl)propan-1-ol]	3 to 10 nM	500 to 5000 nM
COC(C)(CO)c1nc(N2CCOCC2)cc(-n2ccc(-c3cccc(C)c3)n2)n1 (centres unmarked) [Compound 227, 2-methoxy-2-(4-morpholino-6-(3-(m-tolyl)-1H-pyrazol-1-yl)pyrimidin-2-yl)propan-1-ol]	< 3 nM	100 to 500 nM

Structure (SMILES)	IC50 [1]	EC50 [2]
COC(CO)(c1ccccc1)c1nc(N2CCOCC2)cc(-n2ccc(-c3cccc(C)c3)n2)n1 (centres unmarked) [Compound 228, 2-methoxy-2-(4-morpholino-6-(3-(m-tolyl)-1H-pyrazol-1-yl)pyrimidin-2-yl)-2-phenylethan-1-ol]	< 3 nM	100 to 500 nM
COC(CO)(c1ccccc1)c1nc(N2CCOCC2)cc(-n2ccc(-c3cccc(C)c3)n2)n1 (centres unmarked) [Compound 229, 2-methoxy-2-(4-morpholino-6-(3-(m-tolyl)-1H-pyrazol-1-yl)pyrimidin-2-yl)-2-phenylethan-1-ol]	3 to 10 nM	100 to 500 nM
Cc1cccc(-c2ccn(-c3cc(N4CCOCC4)nc(C#CC(O)c4cnn(C)c4)n3)n2)c1 (centres unmarked) [Compound 230, 1-(1-methyl-1H-pyrazol-4-yl)-3-(4-morpholino-6-(3-(m-tolyl)-1H-pyrazol-1-yl)pyrimidin-2-yl)prop-2-yn-1-ol]	< 3 nM	20 to 100 nM
Cc1cccc(-c2ccn(-c3cc(N4CCOCC4)nc(CCC(O)c4cnn(C)c4)n3)n2)c1 (centres unmarked) [Compound 231, 1-(1-methyl-1H-pyrazol-4-yl)-3-(4-morpholino-6-(3-(m-tolyl)-1H-pyrazol-1-yl)pyrimidin-2-yl)propan-1-ol]	< 3 nM	20 to 100 nM
Cn1cc(CCOc2nc(N3CCOCC3)cc(-n3ccc(-c4cn(C)c5ccccc45)n3)n2)cn1 [Compound 232, 4-(6-(3-(1-methyl-1H-indol-3-yl)-1H-pyrazol-1-yl)-2-(2-(1-methyl-1H-pyrazol-4-yl)ethoxy)pyrimidin-4-yl)morpholine]	100 to 5000 nM	> 5000 nM
Cn1cc(CCOc2nc(N3CCOCC3)cc(-n3nc(-c4ccccc4)cc3CO)n2)cn1 [Compound 233, (1-(2-(2-(1-methyl-1H-pyrazol-4-yl)ethoxy)-6-morpholinopyrimidin-4-yl)-3-phenyl-1H-pyrazol-5-yl)methanol]	< 3 nM	20 to 100 nM
Cc1cccc(-c2cc(CO)n(-c3cc(N4CCOCC4)nc(OCCc4cnn(C)c4)n3)n2)c1 [Compound 234, (1-(2-(2-(1-methyl-1H-pyrazol-4-yl)ethoxy)-6-morpholinopyrimidin-4-yl)-3-(m-tolyl)-1H-pyrazol-5-yl)methanol]	< 3 nM	< 20 nM
Cc1cccc(-c2cc(CN3CCOCC3)n(-c3cc(N4CCOCC4)nc(OCCc4cnn(C)c4)n3)n2)c1 [Compound 235, 4-(2-(2-(1-methyl-1H-pyrazol-4-yl)ethoxy)-6-(5-(morpholinomethyl)-3-(m-tolyl)-1H-pyrazol-1-yl)pyrimidin-4-yl)morpholine]	< 3 nM	20 to 100 nM
COc1nc(N2CCOCC2)cc(-n2nc(-c3cccc(C)c3)cc2CN2CCOCC2)n1 [Compound 236, 4-(2-methoxy-6-(5-(morpholinomethyl)-3-(m-tolyl)-1H-pyrazol-1-yl)pyrimidin-4-yl)morpholine]	< 3 nM	> 5000 nM
Cc1cccc(-c2cc(N3CCOCC3)n(-c3cc(N4CCOCC4)nc(OCCc4cnn(C)c4)n3)n2)c1 [Compound 237, 4-(2-(2-(1-methyl-1H-pyrazol-4-yl)ethoxy)-6-(5-morpholino-3-(m-tolyl)-1H-pyrazol-1-yl)pyrimidin-4-yl)morpholine]	< 3 nM	< 20 nM
Cc1cccc(-c2ccn(-c3cc(N4CCOCC4)nc(OCc4ccn(CCN(C)C)n4)n3)n2)c1 [Compound 238, N,N-dimethyl-2-(3-(((4-morpholino-6-(3-(m-tolyl)-1H-pyrazol-1-yl)pyrimidin-2-yl)oxy)methyl)-1H-pyrazol-1-yl)ethan-1-amine]	< 3 nM	100 to 500 nM
Cc1cccc(-c2ccn(-c3cc(N4CCOCC4)c4[nH]ccc4n3)n2)c1 [Compound 241, 4-(5-(3-(m-tolyl)-1H-pyrazol-1-yl)-1H-pyrrolo[3,2-b]pyridin-7-yl)morpholine]	3 to 10 nM	500 to 5000 nM
Cc1cccc(-c2cc(CN(C)C)n(-c3cc(N4CCOCC4)c4[nH]ccc4n3)n2)c1 [Compound 242, N,N-dimethyl-1-(1-(7-morpholino-1H-pyrrolo[3,2-b]pyridin-5-yl)-3-(m-tolyl)-1H-pyrazol-5-yl)]	3 to 10 nM	500 to 5000 nM
Cc1cc(-c2cccc3c2OCCN3)nn1-c1cc(N2CCOCC2)nc(OCCc2cnn(C)c2)n1 [Compound 245, 8-(5-methyl-1-(2-(2-(1-methyl-1H-pyrazol-4-yl)ethoxy)-6-morpholinopyrimidin-4-yl)-1H-pyrazol-3-yl)-3,4-dihydro-2H-benzo[b][1,4]oxazine]	10 to 100 nM	> 5000 nM
COc1cccc(-c2ccn(-c3cc(N4CCOCC4)nc([C@@H](CO)OC)n3)n2)c1 [Compound 262, (S)-2-methoxy-2-(4-(3-(3-methoxyphenyl)-1H-pyrazol-1-yl)-6-morpholinopyrimidin-2-yl)ethan-1-ol]	10 to 100 nM	100 to 500 nM

— patent publication US20230135152A1 (ACURASTEM INCORPORATED, priority 2020, published 2023)
